Experimental findings from patent US4990531A, “Derivatives of 1-arylsulphonyl-2-pyrrolidinone and their use as medicaments” (Roussel Uclaf, priority 1988, dated 1991) are described below.

Like-named read-outs stand apart in the source and are kept apart here.

For series [1], the system named is contractions induced by barium chloride, isolated ileum. The experiment in a line: Antagonism of barium chloride-induced contractions, isolated guinea-pig ileum. The settings on record: barium chloride 2×10^-4 M; contact time one minute; read-out: Antagonism with various agents (IC50): BaCL2. How it is done:
(§1) The interaction of the compounds with various receptors was evaluated on the isolated ileum of a guinea-pig according to the following method.
(§2) Segments of the ileum of guinea-pigs of 2.5-3 cm were washed and immediately suspended in a bath containing 10 ml of Tyrode's solution at 37° C. and aerated with a mixture of oxygen (95%) and carbon dioxide (5%). After a stabilization period of at least 30 minutes contractions were recorded, while the preparation was maintained under constant tension of 1 g, by means of a detector connected to a polygraph. The agonistic action was evaluated by leaving the compound in contact with the isolated tissue for a period necessary to show the maximum […]; then it was washed with the Tyrode's solution. The following dose was added only after the preparation had returned to its base line. Arecoline was used as a reference product. The antagonist action was evaluated on the contractions induced by acetylcholine (1×10^-6 M), histamine (1×10^-5 M), serotonine (1×10^-6 M) and barium chloride (2×10^-4 M). […] The contact time before adding the agonist was one minute.
(§3) For each compound the does response curves are obtained with 4 to 6 different concentrations and 3 to 5 independent tests. The agonist activity is expressed by pD2 (negative logarithm of the dose which produces 50% of the maximum effect).

The subject of series [2] is contractions induced by acetylcholine, isolated ileum. The experiment in a line: Antagonism of acetylcholine-induced contractions, isolated guinea-pig ileum. The settings on record: acetylcholine 1×10^-6 M; contact time one minute; read-out: Antagonism with various agents (IC50): Ach. How it is done:
as §1, §2, §3

For series [3], the system named is contractions induced by acetylcholine, isolated colon. The experiment in a line: Antagonism of acetylcholine-induced contractions, isolated colon of rat. The settings on record: acetylcholine 3×10^-6 M; contact 3 minutes. How it is done:
The remarkable antagonist action of the compounds of the invention was confirmed on the isolated colon of rats. In this test it was established whether the antagonist activity was of competitive or non-competitive type.
(§4) The following method was used: segments of the colon of rats of about 2.5 cm are washed and suspended in an insulated bath containing 10 ml of a solution of De Jalon having the following composition: (mM): NaCl 154; KCl 5.7; CaCl2 0.27; NaHCO3 5.9 and glucose 2.5. The temperature of the bath is maintained at 32° C. In these conditions, while maintaining the preparation under a tension of 1 g, the spontaneous activity of the colon is minimal. After a stabilization period of at least 30 minutes, the tension variations are recorded using an isometric transducer connected to a recorder. A series of tests was carried out to evaluate the antagonist activity in relation to the contractions induced by a maximum dose of acetylcholine. (3×10^-6 M).
The compounds are left in contact with the preparation for 3 minutes before adding acetylcholine.
Atropine was used as a reference product. For each compound the dose-response curves are obtained with 4 to 6 different concentrations and 3 to 5 independent tests.

The target in series [4] is T1, muscarine receptors, involved in the contractions of the colon (Rattus norvegicus, UniProt P08483).
T1 construct: segments of the colon of rats of about 2.5 cm; from tissue; host or cells: isolated rat colon segments
T1 sequence (P08483 whole entry): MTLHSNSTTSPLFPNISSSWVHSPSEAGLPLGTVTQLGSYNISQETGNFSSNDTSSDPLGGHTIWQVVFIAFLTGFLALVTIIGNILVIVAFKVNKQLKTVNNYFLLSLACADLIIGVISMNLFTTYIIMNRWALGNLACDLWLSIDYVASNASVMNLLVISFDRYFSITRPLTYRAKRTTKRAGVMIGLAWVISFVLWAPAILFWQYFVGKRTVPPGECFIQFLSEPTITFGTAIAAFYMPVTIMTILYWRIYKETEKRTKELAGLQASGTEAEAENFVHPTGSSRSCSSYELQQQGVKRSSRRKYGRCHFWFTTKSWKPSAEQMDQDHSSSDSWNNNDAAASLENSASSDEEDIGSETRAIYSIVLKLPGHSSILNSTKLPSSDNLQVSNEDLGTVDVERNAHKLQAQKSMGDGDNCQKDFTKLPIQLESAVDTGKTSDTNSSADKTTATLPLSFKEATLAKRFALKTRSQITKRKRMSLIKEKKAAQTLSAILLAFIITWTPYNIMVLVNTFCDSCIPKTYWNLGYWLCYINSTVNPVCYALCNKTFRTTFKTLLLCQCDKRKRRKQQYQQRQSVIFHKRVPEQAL
Nature of the series: Antagonist affinity and type of antagonism (Schild), isolated colon of rat. How it is done:
as §4
For each compound the dose-response curves are obtained with 4 to 6 different concentrations and 3 to 5 independent tests.
In a second series of tests the acetylcholine is added to the bath in cumulative doses according to the van Rossum method (J. M. van Rossum, Arch, Int. Pharmacodyn. 143, 299, 1963). Having obtained two equal and consecutive dose-response curves with acetylcholine, a third dose-responsecurve is obtained in the presence of the compound (contact time of compound before acetylcholine=5 min.) Each compound was tested with 3-4 different concentrations
The antagonist affinity and the type of antagonism (competitive, non-competitive) for the muscarine receptors was calculated according to Schild's method (H. D. Schild, Brit. J. Pharmacol. 2, 189, 1947).

The subject of series [5] is cholinomimetic effects induced by carbachol. The experiment in a line: In vivo anticholinergic action: inhibition of carbachol-induced cholinomimetic effects. Also on record: species or system CD1 male mice. The settings on record: for ED50 / ED (1 degree C): Mus musculus, ip, 0.5 h; for ED (1 degree C): rectal temperature, read-out: Body Temperature: dose able to increase by 1° C. the hypothermic effect induced by carbachol. How it is done:
The anticholinergic activity of the compounds was determined by evaluating the capacity to inhibit cholinomimetic effects induced by carbachol. Atropine sulphate was used as reference product.
CD1 male mice are used weighing 25 to 30 g. They are divided into groups of 5 animals and treated by intraperitoneal route, in scaled doses, with the products or with 0.25% of Methocel for the controls. 10 animals are used for each dose. 30 minutes after the administration of the compounds, the mice are subcutaneously injected with 1 mg/kg of carbachol, dissolved in physiological serum.
Each animal was examined 30 minutes after the injection of carbachol to evaluate the presence of diarrhea, salivation and watering of the eyes; the body temperature was also measured using a thermocouple inserted 1.5 cm into the rectum.
For each compound, there was determined, and recorded in the following table, the dose able to inhibit, in 50% of the animals, the appearance of peripheral cholinomimetic symptoms induced by carbachol, and to increase by 1° C. the hypothermic effect induced by the cholinergic agent.

The test system of the next series is isolated ileum. The experiment in a line: Agonist action on isolated guinea-pig ileum. Conditions: negative logarithm of the dose producing 50% of maximum effect. How it is done:
as §1, §2, §3

A short description of series [6]: Solubility in various solvents. The series is classed as physicochemical.
Where [7] appears, read: i.p., carbachol 1 mg/kg s.c. 30 min later, read-out: dose able to inhibit, in 50% of the animals, Diarrhea.
Setting [8] is: i.p., carbachol 1 mg/kg s.c. 30 min later, read-out: dose able to inhibit, in 50% of the animals, Salivation.
Where [9] appears, read: i.p., carbachol 1 mg/kg s.c. 30 min later, read-out: dose able to inhibit, in 50% of the animals, Watering of Eyes.
[10] abbreviates: i.p., carbachol 1 mg/kg s.c. 30 min later.

Regarding `COc1ccc(Cc2nccc3cc(OC)c(OC)cc23)cc1OC` [Papaverine, reference compound], the IC50 – broadly, the concentration that gives 50% inhibition – in series [1] was 45000 nM.

With `CN1[C@@H]2CC[C@H]1C[C@@H](OC(=O)C(CO)c1ccccc1)C2` (stereo partly shown) [Atropine, reference compound], the figures for the half-inhibitory concentration (IC50) in series [2] and in series [3] were 9.5 nM and 27 nM, respectively. Besides, in series [4] (cumulative acetylcholine, Schild's method, contact 5 min), the “"Slope" of Schild plot, isolated colon of rat” value was 0.97. Further, the “displacement of the dose-response curve of acetylcholine” value in series [4] (isolated colon of rat, in words) is given as “parallel displacement towards the right of the dose-response curve of acetyl-choline without reducing the maximum contraction”. Besides, the ED50 in series [5] (read-out: dose able to inhibit, in 50% of the animals, Diarrhea) was 0.04 mg/kg; in series [5] (read-out: dose able to inhibit, in 50% of the animals, Salivation), 0.06 mg/kg; in series [5] (read-out: dose able to inhibit, in 50% of the animals, Watering of Eyes), 0.05 mg/kg.

As to `COC(=O)C1=CCCN(C)C1` [Arecoline, reference compound], in the series on isolated ileum, the “Agonist Action (pD2)” value is recorded as 6.68.

As to `O=C1CCCN1S(=O)(=O)c1ccc(N2CCCCCC2)cc1` [Example 18, 1-[4-(4-hexahydroazepin)phenylsulphonyl]-2-pyrrolidinone], the values for the ED50 in series [5] (setting [7]), in series [5] (setting [8]) and in series [5] (setting [9]) were 1 mg/kg, 15 mg/kg and 50 mg/kg, respectively. Also, the ED (1 degree C) in series [5] (setting [10]) is 15 mg/kg.

Consider `C[N+](C)(C)CCOC(N)=O` [carbachol, reference compound], for which the “decrease in rectal temperature” value in series [5] (carbachol 1 mg/kg s.c., control mice) is “about 2.5 °C”. Moreover, the “induction of diarrhea, salivation and watering of the eyes” value in series [5] (carbachol 1 mg/kg s.c., control mice, in words) is “induced diarrhea, salivation and watering of the eyes in all the control mice”.

Consider `CN(C)c1ccc(S(=O)(=O)N2CCCC2=O)cc1` [Example 3], for which the solubility entry is “insoluble” in series [6] (2N hydrochloric acid); “insoluble” in series [6] (2N sodium hydroxide); “slightly soluble” in series [6] (acetone); “slightly soluble” in series [6] (alcohol at 95°); “slightly soluble” in series [6] (benzene); “Soluble” in series [6] (chloroform). Also, the solubility result in series [6] (ethyl ether) and in series [6] (water) was “insoluble” each time.

As to `O=C1CCCN1S(=O)(=O)c1ccc(N2CCCCC2)cc1` [Example 10, 1-[4-(1-piperidinyl)phenylsulphonyl]-2-pyrrolidinone], the ED50 in series [5] (setting [7]) is 3 mg/kg; in series [5] (setting [8]) it was 50 mg/kg; in series [5] (setting [9]), > 50 mg/kg. In addition, in series [5] (setting [10]), the ED (1 degree C) is > 50 mg/kg. In addition, the “selective anticholinergic action in vivo” value in series [5] (i.p., mice, in words) is reported as “selective anticholinergic action on the intestinal musculature”.
